Measurements reported in US20200038412A1, “METHODS OF TREATING ALZHEIMER'S DISEASE USING AMINOSTEROL COMPOSITIONS” (Enterin, Inc., priority 2018, published 2020).
Values joined by “and” are separate entries in the source; they are usually repeats but may differ in a detail not shown here. Equal entries are not always repeated.

How the values were obtained:
[1] = system: patients with PD and constipation; assay: Phase 2 trial Stage 2: adverse events; type: in vivo, human
Method: In Stage 2, 34 patients were evaluated.

[2] = system: patients with PD and constipation; assay: Phase 2 trial Stage 2: CNS symptoms (UPDRS, MMSE, PDHQ, BDI-II, sleep diary); type: in vivo, human; details: for patients in whom hallucinations and delusions improved or disappeared during treatment: 6 patients with hallucinations (5) or delusions (1) at baseline; for UPDRS Part 1 (NMS): baseline 11.6 (6.51); for UPDRS Total: baseline 64.4 (23.72); for BDI-II: baseline 10.9 (7.12); for MMSE: baseline 28.4 (1.75)
Description: Exploratory end-points, in addition to constipation, included for example, (i) depression assessed using the Beck Depression Inventory (BDI-II) (Steer et al. 2000) and Unified Parkinson's Disease Rating Scale (UPDRS); (ii) cognition assessed using the Mini Mental State Examination (MMSE) (Palsteia et al. 2018), Unified Parkinson's Disease Rating Scale (UPDRS), and Trail Making Test (TMT); (iii) sleep and REM-behavior disorder (RBD) using a daily sleep diary, I-Button Temperature Assessment, a REM sleep behavior disorder (RBD) questionnaire (RBDQ) (Stiasny-Kolster et al. 2007), and the UPDRS; (iv) hallucinations assessed using the PD hallucinations questionnaire (PDHQ) (Papapetropoulos et al. 2008), the UPDRS, and direct questioning; (v) fatigue using the Parkinson's Disease Fatigue Scale (PFS-16) and the UPDRS; (vi) motor functions using the UPDRS; and (vii) non-motor functions using the UPDRS.
Assessments were made at baseline and at the end of the fixed dose and washout periods. Circadian system status was evaluated by continuously monitoring wrist skin temperature (Thermochron iButton DS1921H; Maxim, Dallas) following published procedures (Sarabia et al. 2008).
An exploratory analysis was done with respect to the sleep data, the body temperature data, mood, fatigue, hallucinations, cognition and other motor and non-motor symptoms of PD. Continuous measurements within a subject were compared with a paired t-test and continuous measurements between subject groups were compared with a two-group t-test. Categorical data were compared with a chi-squared test or a Fisher's exact test if the expected cell counts are too small for a chi-squared test.
CNS symptoms were evaluated at baseline and at the end of the fixed dose period and the wash-out period (Table 12). Total UPDRS score was 64.4 at baseline, 60.6 at the end of the fixed dose period and 55.7 at the end of the wash-out period (p=0.002); similarly, the motor component of the UPDRS improved from 35.3 at baseline to 33.3 at the end of fixed dose to 30.2 at the end of wash-out (p=0.006). MMSE improved from 28.4 at baseline to 28.7 during treatment and to 29.3 during wash-out (p=0.0006). […] PDHQ improved from 1.3 at baseline to 1.8 during treatment and 0.9 during wash-out (p=0.03). Hallucinations were reported by 5 patients at baseline and delusions in 1 patient. […] The frequency of arm or leg thrashing reported in the sleep diary diminished progressively from 2.2 episodes/week at baseline to 0 at maximal dose. […] Unlike stool-related indices, the improvement in many CNS symptoms persisted during wash-out.

[3] = Preclinical oral dosing in rats; type: in vivo
[4] = Stage 2, end of fixed dose, mean (SD), n = 34
[5] = Stage 2, end of wash-out, mean (SD)
[6] = Stage 2, fixed dose, mean (SD), n = 34

SMILES: CC(C)[C@@H](CC[C@@H](C)[C@H]1CC[C@H]2[C@@H]3[C@H](O)C[C@H]4C[C@@H](NCCCNCCCCN)CC[C@]4(C)[C@H]3CC[C@]12C)OS(=O)(=O)O (single isomer, unassigned) [squalamine (ENT-01), squalamine]
- AEs confined to the GI tract ([1]; Stage 2): 63%
- Diarrhea (common adverse events by dose) ([1]; Stage 2, 75 mg): 7
- Dizziness, lightheadedness included (common adverse events by dose) ([1]; Stage 2, 75 mg): 8
- Nausea (common adverse events by dose) ([1]; Stage 2, 75 mg): 3
- Diarrhea (common adverse events by dose) ([1]; Stage 2, 100 mg): 10
- Dizziness, lightheadedness included (common adverse events by dose) ([1]; Stage 2, 100 mg): 7
- Nausea (common adverse events by dose) ([1]; Stage 2, 100 mg): 12
- Diarrhea (common adverse events by dose) ([1]; Stage 2, 125 mg): 3
- Dizziness, lightheadedness included (common adverse events by dose) ([1]; Stage 2, 125 mg): 8
- Nausea (common adverse events by dose) ([1]; Stage 2, 125 mg): 4
- Diarrhea (common adverse events by dose) ([1]; Stage 2, 150 mg): 2
- Dizziness, lightheadedness included (common adverse events by dose) ([1]; Stage 2, 150 mg): 2
- Nausea (common adverse events by dose) ([1]; Stage 2, 150 mg): 11
- Diarrhea (common adverse events by dose) ([1]; Stage 2, 175 mg): 1
- Dizziness, lightheadedness included (common adverse events by dose) ([1]; Stage 2, 175 mg): 0
- Nausea (common adverse events by dose) ([1]; Stage 2, 175 mg): 12
- Diarrhea (common adverse events by dose) ([1]; Stage 2, 200 mg): 3
- Nausea (common adverse events by dose) ([1]; Stage 2, 200 mg): 6
- Diarrhea (common adverse events by dose) ([1]; Stage 2, 225 mg): 3
- Nausea (common adverse events by dose) ([1]; Stage 2, 225 mg): 1
- Diarrhea (common adverse events by dose) ([1]; Stage 2, 250 mg): 2
- patients with diarrhea ([1]; Stage 2, 15/34 patients): 44%
- patients with nausea ([1]; Stage 2, 18/34 patients): 52.9%
- Abdominal pain, Mild ([1]; Stage 2, 34 dosed): 4 (11.7) n, %
- Abdominal pain, Moderate ([1]; Stage 2, 34 dosed): 2 (5.8) n, %
- Blood in urine, Mild ([1]; Stage 2, 34 dosed): 0 n, %
- Blood in urine, Moderate ([1]; Stage 2, 34 dosed): 0 n, %
- Diarrhea, Mild ([1]; Stage 2, 34 dosed): 12 (35) n, %
- Diarrhea, Moderate ([1]; Stage 2, 34 dosed): 2 (5.8) n, %
- Diarrhea, Severe ([1]; Stage 2, 34 dosed): 1 (2.9) n, %
- Difficulty falling asleep, Mild ([1]; Stage 2, 34 dosed): 1 (3) n, %
- Difficulty falling asleep, Moderate ([1]; Stage 2, 34 dosed): 0 n, %
- Dizziness, Mild ([1]; Stage 2, 34 dosed): 7 (20.5) n, %
- Dizziness, Moderate ([1]; Stage 2, 34 dosed): 1 (2.9) n, %
- Eye infection, Mild ([1]; Stage 2, 34 dosed): 1 (3) n, %
- Eye infection, Moderate ([1]; Stage 2, 34 dosed): 0 n, %
- Flatulence, Mild ([1]; Stage 2, 34 dosed): 1 (3) n, %
- Flatulence, Moderate ([1]; Stage 2, 34 dosed): 0 n, %
- Headache, Mild ([1]; Stage 2, 34 dosed): 3 (8.8) n, %
- Headache, Moderate ([1]; Stage 2, 34 dosed): 0 n, %
- Increased urinary frequency, Mild ([1]; Stage 2, 34 dosed): 2 (5.8) n, %
- Increased urinary frequency, Moderate ([1]; Stage 2, 34 dosed): 0 n, %
- Loss of appetite, Mild ([1]; Stage 2, 34 dosed): 0 n, %
- Loss of appetite, Moderate ([1]; Stage 2, 34 dosed): 0 n, %
- Nausea, Mild ([1]; Stage 2, 34 dosed): 18 (52) n, %
- Nausea, Moderate ([1]; Stage 2, 34 dosed): 1 (2.9) n, %
- Skin lesions-rash, Mild ([1]; Stage 2, 34 dosed): 3 (8.8) n, %
- Skin lesions-rash, Moderate ([1]; Stage 2, 34 dosed): 0 n, %
- Urinary retention, Mild ([1]; Stage 2, 34 dosed): 1 (3) n, %
- Urinary retention, Moderate ([1]; Stage 2, 34 dosed): 0 n, %
- Urinary tract infection, Mild ([1]; Stage 2, 34 dosed): 1 (3) n, %
- Urinary tract infection, Moderate ([1]; Stage 2, 34 dosed): 2 (5.8) n, %
- Vomiting, Mild ([1]; Stage 2, 34 dosed): 2 (5.8) n, %
- Vomiting, Moderate ([1]; Stage 2, 34 dosed): 0 n, %
- Worsening acid reflux, Mild ([1]; Stage 2, 34 dosed): 4 (11.7) n, %
- Worsening acid reflux, Moderate ([1]; Stage 2, 34 dosed): 0 n, %
- Worsening hemorrhoid, Mild ([1]; Stage 2, 34 dosed): 1 (3) n, %
- Worsening hemorrhoid, Moderate ([1]; Stage 2, 34 dosed): 0 n, %
- patients terminated prior to completion because of recurrent dizziness ([1]; Stage 2, two patients): 5.8%
- Lower GI bleed, Severe ([1]; Stage 2, colonic diverticulosis, polyp, patient on aspirin, Plavix and naproxen, unrelated to ENT-01): 1 (2.5) n, %
- patients in whom hallucinations and delusions improved or disappeared during treatment [2]: 5 of 6
- patients in whom hallucinations and delusions improved or disappeared during treatment ([2]; listed as ENT-01): five
- patients in whom hallucinations and delusions improved or disappeared during treatment ([2]; listed as aminosterol): five and 5 of 6
- increase of total sleep time ([2]; 7.1 hours at baseline to 8.4 hours at 250 mg): 18%
- UPDRS Part 1 (NMS) [2, 4]: 10.6 (6.18))
- UPDRS Total [2, 4]: 60.6
- UPDRS Total ([2]; Stage 2, end of fixed dose, mean (SD), n = 34, listed as Squalamine (ENT-01)): 60.6 (25.60)
- UPDRS Part 1 (NMS) [2, 5]: 9.5 (5.27)
- UPDRS Total [2, 5]: 55.7
- UPDRS Total ([2]; Stage 2, end of wash-out, mean (SD), listed as Squalamine (ENT-01)): 55.7 (23.69)
- BDI-II [2, 6]: 9.9 (6.45)
- MMSE [2, 6]: 28.7 (1.9)
- PDHQ ([2]; Stage 2, wash-out, mean (SD), baseline 1.3 (2.99)): 0.9 (2.33)
- BDI-II ([2]; Stage 2, wash-out, mean (SD)): 8.7 (5.19)
- MMSE ([2]; Stage 2, wash-out, mean (SD)): 29.3 (1.06)
- frequency of arm or leg thrashing reported in the sleep diary ([2]; at maximal dose, baseline 2.2): 0 episodes/week
- improvement of frequency of arm or leg thrashing ([2]; baseline 2.2 episodes/week to 0 at maximal dose): 100%
- improvement in depression scoring (BDI-II) ([2]; baseline 10.9 to wash-out 8.7): 20%
- improvement of UPDRS Part 1 ([2]; baseline 11.6 to wash-out 9.5, listed as aminosterol): ~20% and 18%
- improvement of total UPDRS score ([2]; baseline 64.4 to end of wash-out 55.7): 13.5%
- total sleep time versus baseline ([2]; beyond 125 mg): consistently higher than baseline
- time patient remained free of hallucinations following cessation of dosing ([2]; one patient): 1 month
- dose at which hallucinations disappeared ([2]; one patient, colonic prokinetic dose of 175 mg not reached): 100 mg
- absorption from the intestine ([3]; rat, portal blood concentrations following oral dosing of radioactive ENT-01): low
- bioavailability ([3]; rats): limited bioavailability
- tolerability ([3]; rats): well tolerated
